Patent US11999676B2, “Vesicular monoamine transporter-2 ligands and their use in the treatment of psychostimulant abuse” (priority 2016, dated 2024)
Like-named read-outs stand apart in the source and are kept apart here.

Legend:
VMAT2 = VMAT2 (Rattus norvegicus (Rat), UniProt Q01827); assay: [3H]Dopamine ([3H]DA) uptake assay, vesicular preparation; assay type: biochemical
[1] = Microsomal stability assay, human liver microsomes; details: for CLint scaled at 0.08 µM / half-life at 0.08 µM: both, human, pooled liver microsomes; for CLint scaled at 0.08 µM: pH 7.4, Microsomal stability assays: Clearance; for half-life at 0.08 µM: pH 7.4, Microsomal stability assays: Half-life
Description: Each plate holds triplicate samples of two controls (0.4 mM) and up to 14 compounds (0.08 mM) in rat and human liver microsomes. Aliquots of each well of the plate (175 μl of each well) were transferred from the master plate into 5 assay plates. For 0-hr time point, pre-cooled (4° C.) internal standard (437.5 μL, 2 μM caffeine in methanol) was added to the first plate before the reaction starts. NADPH regenerating system solution A (6.05 ml, Fisher Scientific, #NC9255727) was combined with NADPH regenerating system solution B (1.21 ml, Fisher Scientific, #NC9016235) in potassium phosphate buffer (15.8 ml, 0.1 M, pH 7.4, 37° C.). The resulting NADPH solution (43.8 μl) was added to each well of all the 96-well assay plates and mixed with pipette briefly making the final protein and compound concentrations respectively: 0.5 mg/ml, 0.08 μM (0.4 μM for controls). Plates were sealed, and all plates except the 0-hr plate were incubated at 37° C., shaken at a speed of 60 rpm. A single assay plate was tested at each time point: 0.5 hr, 1 hr, 2 hr, and 4 hr. At each time point, 437.5 μL of pre-cooled internal standard was added each well of the plate to quench the reaction. […] 120 μl supernatant was transferred to a 96-well plate, centrifuged again and analyzed by UPLC-MS (Waters Inc., Milford, MA). The compounds and internal standard were detected by selected ion recording (SIR).
The amount of material was measured as a ratio of peak area to the internal standard and graphed. Using the slope from the initial linear portion of this curve, the degradation rate constant is calculated using equation [1].

[2] = Microsomal stability assay, rat liver microsomes; details: for CLint scaled at 0.08 µM / half-life at 0.08 µM: female, Sprague-Dawley, rat, liver microsomes; for CLint scaled at 0.08 µM: pH 7.4, Microsomal stability assays: Clearance; for half-life at 0.08 µM: pH 7.4, Microsomal stability assays: Half-life
[3] = [3H]DA uptake (Ki) VMAT2, rat striatal synaptic vesicles
[4] = [3H]DA uptake, rat, read-out: VMAT2 (rat) Inhibition: Mean Ki ± Standard Deviation

SMILES	CLint scaled at 0.08 µM [1] [mL/min/kg]	half-life at 0.08 µM [1] [min]	CLint scaled at 0.08 µM [2] [mL/min/kg]	half-life at 0.08 µM [2] [min]	also measured
C[C@H](Cc1ccc(Br)cc1)NCCCc1ccccc1 [Compound 12]	–	–	–	–	Ki (VMAT2; [3]): 6 ± 1 nM
C[C@@H](Cc1ccc(Br)cc1)NCCCc1ccccc1 [Compound 13]	–	–	–	–	Ki (VMAT2; [3]): 32 ± 4 nM
COc1ccc(C[C@@H](C)NCCCc2ccccc2)cc1 [Compound 27]	–	–	–	–	Ki (VMAT2; [3]): 45 ± 4 nM
COc1ccc(C[C@H](C)NCCCc2ccccc2)cc1 [Compound 28]	–	–	–	–	Ki (VMAT2; [3]): 20 ± 1 nM
CC(Cc1ccc(F)cc1)NCCCc1ccc2[nH]ccc2c1 (centres unmarked) [Compound 56]	106	12	–	–	–
CC(Cc1ccc(F)c(F)c1)NCCCc1ccc(N)cc1 (centres unmarked) [Compound 61]	9.6	132	–	–	–
CC(Cc1ccc(Cl)cc1)NCCCc1ccc(N)cc1 (centres unmarked) [Compound 63]	11.6	108	–	–	–
CC(C)Nc1ccc(CCCNC(C)Cc2ccc(F)cc2)cc1 (centres unmarked) [Compound 65]	–	–	–	–	Ki (VMAT2; [4]): 112 ± 16.8 nM
CC(=O)Nc1ccc(CCCNC(C)Cc2ccc(F)cc2)cc1 (centres unmarked) [Compound 67]	< 10	> 240	–	–	–
CC(Cc1ccc(F)cc1)NCCCc1ccc(NC=O)cc1 (centres unmarked) [Compound 71]	–	–	97.2	30	–
CC(Cc1ccc(NC=O)cc1)NCCCc1ccccc1 (centres unmarked) [Compound 78]	–	–	167	18	–
FCC(Cc1ccc(Br)cc1)NCCCc1ccc(F)cc1 (centres unmarked) [Compound 86]	18.1	66	–	–	–
CC(Cc1ccc(F)cc1)NCCCc1c[nH]c2ccccc12 (centres unmarked) [Compound 92]	112	12	–	–	–
CC(Cc1ccc(F)cc1)NCCCc1ccc(NC2CCC2)cc1 (centres unmarked) [Compound 93]	–	–	–	–	Ki (VMAT2; [4]): 129 ± 7.41 nM
CC(Cc1ccc(F)cc1)NCCCc1ccc(N)cc1 (centres unmarked) [Compound 95]	12.9	96	–	–	–
CC(Cc1ccc(F)c(F)c1)NCCCc1ccncc1 (centres unmarked) [Compound 97]	11.9	102	–	–	–
FCC(Cc1ccccc1)NCCCc1ccccc1 (centres unmarked) [Compound 99]	119	12	–	–	–
FCC(Cc1ccccc1)NCCCc1ccc(F)cc1 (centres unmarked) [Compound 102]	33.9	36	–	–	–
CC(Cc1ccc(N)cc1)NCCCc1ccncc1 (centres unmarked) [Compound 103]	–	–	–	–	Ki (VMAT2; [4]): 378 ± 30 nM
CC(Cc1ccc(N)cc1)NCCCc1ccccc1 (centres unmarked) [Compound 106]	–	–	17.9	156	–
Nc1ccc(CCCNC(CF)Cc2ccc(F)cc2)cc1 (centres unmarked) [Compound 107]	–	–	82.2	36	Ki (VMAT2; [4]): 105 ± 0.189 nM
Nc1ccc(CCCNC(CF)Cc2ccc(F)cc2)cc1 (centres unmarked) [Compound 108]	9.6	132	–	–	–
CC(Cc1ccc([N+](=O)[O-])cc1)NCCCc1ccncc1 (centres unmarked) [Compound 113]	6.3	198	–	–	Ki (VMAT2; [4]): 157 ± 72.5 nM
CC(Cc1ccc([N+](=O)[O-])cc1)NCCCc1ccncc1 (centres unmarked) [Compound 114]	–	–	95.9	30	–
CC(Cc1ccc([N+](=O)[O-])cc1)NCCCc1ccccc1 (centres unmarked) [Compound 116]	–	–	> 400	< 6	–

SMILES	CLint scaled at 0.08 µM [1] [mL/min/kg]	half-life at 0.08 µM [1] [min]	CLint scaled at 0.08 µM [2] [mL/min/kg]	half-life at 0.08 µM [2] [min]	also measured
CC(Cc1ccc([N+](=O)[O-])cc1)NCCCc1ccc(Br)cc1 (centres unmarked) [Compound 122]	–	–	> 400	< 6	–
CC(Cc1ccc(F)cc1)NCCCc1ccccc1 (centres unmarked) [Compound 127]	–	–	> 400	< 6	–
OCC(Cc1ccc(F)cc1)NCCCc1ccncc1 (centres unmarked) [Compound 128]	–	–	< 10	> 240	–
CC(Cc1ccc(F)cc1)NCCCn1cccn1 (centres unmarked) [Compound 132]	–	–	180	18	Ki (VMAT2; [4]): 709 ± 172 nM
CC(Cc1ccc(F)cc1)NCCCn1cccn1 (centres unmarked) [Compound 133]	< 5.2	> 240	–	–	–
CC(Cc1ccc(F)cc1)NCCCn1ccnc1 (centres unmarked) [Compound 134]	< 5.2	> 240	–	–	Ki (VMAT2; [4]): 517 ± 112 nM
CC(Cc1ccc(F)cc1)NCCCn1ccnc1 (centres unmarked) [Compound 135]	–	–	< 7	> 240	–
CC(C)C(Cc1ccc(F)cc1)NCCCc1ccccc1 (centres unmarked) [Compound 136]	–	–	–	–	Ki (VMAT2; [4]): 386 ± 66.4 nM
CS(=O)(=O)c1ccc(CCCNC(CF)Cc2ccc(F)cc2)cc1 (centres unmarked) [Compound 137]	–	–	–	–	Ki (VMAT2; [4]): 182 ± 56.7 nM
CC(Cc1ccc(F)cc1)NCCCc1ccc(S(C)(=O)=O)cc1 (centres unmarked) [Compound 138]	< 5.2	> 240	–	–	Ki (VMAT2; [4]): 146 ± 41.9 nM
CC(Cc1ccc(F)cc1)NCCCc1ccc(S(C)(=O)=O)cc1 (centres unmarked) [Compound 139]	–	–	< 7	> 240	–
CC(C)C(Cc1ccc(F)cc1)NCCCc1ccc(Br)cc1 (centres unmarked) [Compound 140]	14.4	84	–	–	Ki (VMAT2; [4]): 132 ± 29.5 nM
CC(C)C(Cc1ccc(F)cc1)NCCCc1ccc(Br)cc1 (centres unmarked) [Compound 141]	–	–	> 450	< 6	–
CC(Cc1ccc(F)cc1)NCCCc1ccc([S+](C)[O-])cc1 (centres unmarked) [Compound 144]	–	–	–	–	Ki (VMAT2; [4]): 178 ± 78.9 nM
FCC(Cc1ccc(F)cc1)NCCCc1ccc(Cl)cc1 (centres unmarked) [Compound 151]	22.6	54	–	–	–
FCC(Cc1ccc(F)cc1)NCCCc1ccc(F)cc1 (centres unmarked) [Compound 153]	20.5	60	–	–	–
CC(Cc1ccc(F)cc1)NCCCc1ccc(N(C)C)cc1 (centres unmarked) [Compound 156]	182	–	–	–	Microsomal stability assays: Half-life [1]: 6 min; Ki (VMAT2; [4]): 118 ± 25.8 nM
CC(Cc1ccc(F)cc1)NCCCc1ccc(N(C)C)cc1 (centres unmarked) [Compound 157]	–	–	> 400	< 6	–
CCOC(=O)c1ccc(CCCNC(C)Cc2ccc(F)cc2)cc1 (centres unmarked) [Compound 159]	216	–	–	–	Microsomal stability assays: Half-life [1]: 6 min
CC(Cc1ccc(F)cc1)NCCCc1ccc([N+](=O)[O-])cc1 (centres unmarked) [Compound 161]	< 5.2	> 240	–	–	–
CC(Cc1ccc(F)cc1)NCCCc1ccnc2ccccc12 (centres unmarked) [Compound 163]	–	–	> 400	< 6	–
CC(Cc1ccc(F)cc1)NCCCc1ccc(-c2ccnn2C)cc1 (centres unmarked) [Compound 167]	–	–	111	24	–
CC(Cc1ccncc1)NCCCc1ccc(Br)cc1 (centres unmarked) [Compound 169]	–	–	200	12	–
CC(Cc1ccc(-c2cncnc2)cc1)NCCCc1ccc(Cl)cc1 (centres unmarked) [Compound 171]	75.2	18	–	–	–
COc1ccc(CCCNC(C)Cc2ccncc2)cc1 (centres unmarked) [Compound 173]	–	–	126	24	–

SMILES	CLint scaled at 0.08 µM [1] [mL/min/kg]	half-life at 0.08 µM [1] [min]	CLint scaled at 0.08 µM [2] [mL/min/kg]	half-life at 0.08 µM [2] [min]	also measured
CC(Cc1ccc(Br)cc1)NCCCc1ccncc1 (centres unmarked) [Compound 175]	< 5.2	> 240	–	–	–
CC(Cc1ccc(F)cc1)NCCCc1ccncc1 (centres unmarked) [Compound 177]	< 5.2	> 240	–	–	–
CC(Cc1ccncc1)NCCCc1ccc(O)cc1 (centres unmarked) [Compound 179]	< 5.2	> 240	–	–	–
CC(Cc1ccc(Br)cc1)NCCCc1ccc(I)cc1 (centres unmarked) [Compound 181]	< 5.2	> 240	–	–	–
CC(Cc1ccc(F)cc1)NCCCc1ccc(I)cc1 (centres unmarked) [Compound 183]	< 5.2	> 240	–	–	–
CC(Cc1ccc(Br)cc1)NCCCc1ccc(Cl)cc1 (centres unmarked) [Compound 185]	< 5.2	> 240	–	–	–
CC(Cc1ccncc1)NCCCc1ccc(F)cc1 (centres unmarked) [Compound 187]	–	–	150	18	–
CC(Cc1ccc(F)cc1)NCCCc1ccc(Cl)cc1 (centres unmarked) [Compound 189]	–	–	> 400	< 6	–
CC(Cc1ccc(F)cc1)NCCCc1ccc(F)cc1 (centres unmarked) [Compound 191]	–	–	195	12	–
CC(Cc1ccc(-c2cccnc2)cc1)NCCCc1ccc(F)cc1 (centres unmarked) [Compound 193]	144	–	–	–	Microsomal stability assays: Half-life [1]: 6 min
CC(Cc1ccccc1)NCCCc1ccc(C(F)(F)F)cc1 (centres unmarked) [Compound 195]	< 5.2	> 240	–	–	–
CC(Cc1ccc(-c2cncnc2)cc1)NCCCc1ccc(F)cc1 (centres unmarked) [Compound 197]	40.4	30	–	–	–
COc1ccc(CCC(C)NC(C)Cc2ccccc2)cc1 (centres unmarked) [Compound 198]	–	–	414	–	Microsomal stability assays: Half-life [2]: 6 min; Ki (VMAT2; [4]): 152 ± 25.6 nM
COc1ccc(CCC(C)NC(C)Cc2ccccc2)cc1 (centres unmarked) [Compound 199]	> 400	< 6	–	–	–
CC(Cc1ccc(Br)cc1)NCCCc1ccc(F)cc1 (centres unmarked) [Compound 201]	< 5.2	> 240	–	–	–
CC(Cc1ccccc1)NCCCc1ccc(-c2cncnc2)cc1 (centres unmarked) [Compound 203]	–	–	248	12	–
CC(Cc1ccccc1)NCCCc1ccncc1 (centres unmarked) [Compound 205]	–	–	90.6	30	–
CC(Cc1ccccc1)NCCCc1ccc(-c2cccs2)cc1 (centres unmarked) [Compound 206]	–	–	–	–	Ki (VMAT2; [4]): 125 ± 25.4 nM
CCC(Cc1ccccc1)NCCCc1ccc(O)cc1 (centres unmarked) [Compound 208]	> 400	< 6	–	–	–
CC(Cc1ccccc1)NCCCc1ccc(-c2cccnc2)cc1 (centres unmarked) [Compound 211]	> 400	< 6	–	–	–
CC(Cc1ccccc1)NCCCc1ccc(S)cc1 (centres unmarked) [Compound 217]	–	–	–	–	Microsomal stability assays: Clearance [2]: 170 mL/min/kg
CC(Cc1ccccc1)NCCCc1ccc(Br)cc1 (centres unmarked) [Compound 219]	–	–	> 400	< 6	–
CC(Cc1ccccc1)NCCCc1ccc(O)cc1 (centres unmarked) [Compound 224]	–	–	> 400	< 6	–
CC(Cc1ccccc1)N(CCCc1ccc(O)cc1)CCCc1ccc(O)cc1 (centres unmarked) [Compound 225]	–	–	–	–	Ki (VMAT2; [4]): 4.99 ± 1.19 nM
